Series [1] relates to NCTC 2544 human keratinocytes. The experiment in a line: MTT assay, cell viability. The following applies: for tolerability by NCTC2544 human keratinocytes: 2.5-5 and 10 μM. It counts as cell-based. The protocol: The data represent mean values ±standard deviation. Each treatment was carried out in duplicate.
The data are expressed as mean values ±standard deviation. Each treatment was carried out in duplicate.
The MTT test is useful to assess in vitro cell viability following the treatment with diluted compounds. The MTT method has been used as an indirect measure of cell viability.
The effects on NCTC 2544 cell proliferation from compounds 18-β and POLY-GLY-S at different concentrations have been examined.
The cells have been plated at low densities and treated with different concentrations of active compounds and negative control, in culture medium EMEM, without phenol red supplemented at 10% with FCS, 2 mM L-glutamine, 1% NEAA solution and 1% antibiotic mixture for 24, 48 and 72 hours and cell viability has been assessed by the MTT assay. The cell viability percentage compared to control (FIGS. 1-2) has been calculated after 24, 48 and 72 hours of incubation. […] The same results have been obtained after a prolonged cells exposure (48-72 hours) to tested compounds for all the considered concentrations.

Series [2] concerns expression of the TNF-α gene in NCTC 2544 human keratinocytes. Nature of the series: Inflammation assessment assay: expression of the TNF-α gene by RT-PCR in LPS-treated cells. It is filed as cell-based. The conditions noted are these: for inhibition of the expression of the TNF-α gene / anti-inflammatory effect (inhibiting the expression of the TNF-α gene): LPS 5 μg/ml; for inhibition of the expression of the TNF-α gene: 48 hrs of treatment, compared to cells treated only with LPS; for anti-inflammatory effect (inhibiting the expression of the TNF-α gene): 2.5-5-10 μM, after 48 hrs of treatment. The protocol:
The NCTC 2544 cells were treated at 37° C. for 48 hours, at 5% CO2, with: basal culture medium, containing 2.5% fetal bovine serum (negative control), with: basal culture medium, containing 2.5% fetal bovine serum supplemented with LPS (5 μg/ml) (positive control), with: basal culture medium, containing 2.5% fetal bovine serum supplemented with LPS (5 μg/ml) and 18-β-glycyrrhetinic acid (18-β) at a concentration of 2.5-5-10 μM, with: basal culture medium, containing 2.5% fetal bovine serum supplemented with LPS (5 μg/ml), and POLY-GLY-S at a concentration of 2.5-5-10 μM. The results are expressed as a percentage of inflammation as compared to cells treated with LPS. The values represent the mean values of 2 experiments in duplicate.
The anti-inflammatory effects of ester having formula (Ia) of Example 1 (referred to as ‘POLY-GLY-S’ for shortness of description) have been investigated in an in vitro inflammation model, on NCTC2544 human keratinocytes and using lipopolysaccharide (LPS) from E. coli as mediator of inflammatory state. The effect of derivative in the models used has been compared to that of 18-β-glycyrrhetic acid (referred to as ‘18-β’ for shortness of description).
Furthermore, the in vitro inflammatory potential of POLY-GLY-S towards a positive control (cells treated with 5 μg/ml lipopolysaccharide) was determined. The data obtained have been compared to those obtained, in the same experimental model, using 18-β.
Inflammation Assessment Assay
The expression of the TNF-α gene on NCTC 2544 cells was assessed by RT-PCR.
The gene expression analysis implies four steps: • 1. Cell treatment with active compounds for 48 hrs; • 2. RNA extraction; • 3. cDNA reverse transcription; • 4. quantitative […].
In experimental conditions, in connection with the results obtained in the previous MIT assay, POLY-GLY-S and 18-β have been tested at a concentration of 20 μM (final concentration in the culture medium). Both positive control and negative control have been tested.
When the cells (NCTC 2544 human keratinocytes) had reached about 80% confluence, they were removed with trypsin/EDTA and seeded at a density of 1×10^6 cells/ml in 12-well plates and then incubated at 37° C., 5% CO2 (24 h).
When the cells had reached about 80% confluence, the complete medium was removed; cells were washed with PBS 1× and incubated in EMEN (EBSS) with 2.5% FBS, supplemented with 2 mM L-glutamine, 1% NEAA solution and 1% antibiotic mixture at 37° C., 5% CO2 for at least 4 hrs.
POLY-GLY-S and 18-β were dissolved in EMEN supplemented with 2.5% FBS, 2 mM L-glutamine, 1% NEAA solution and 1% penicillin (10,000 U/ml)/streptomycin (10,000 μg/ml) mixture.
Controls only containing culture medium (negative control) and culture medium plus LPS (5 μg/ml) (positive control) have been included in each plate.
Cells were exposed to increasing concentrations of compounds to be tested, i.e. 2.5-5-10 μM.
To each well LPS at a concentration of 5 μg/ml was added. Each sample was tested in duplicate.
Then cells were incubated at 37° C., 5% CO2 for 24 hrs.
Total RNA was extracted from cells using a single homogeneous solution Tri-reagent (Sigma Aldrich) to isolate RNA following manufacturer's instructions.
The extracted and quantified total RNA was amplified using the “High-Capacity cDNA Reverse transcription Kit” (Applied Biosystems).
RT-PCR was carried out using TaqMan linear probes (Applied Biosystems). These probes are the most used and published detection system for qPCR applications. In stock probes and primer were selected based on previous specific bibliographic studies.
The relative quantification method was used where the gene relative concentration of interest (target) is compared with unknown samples to a calibrator or control sample (untreated cells).
10 μl TaqMan 2× Gene Expression master Mix and 1 μl 20× TaqMan Gene Expression were added to cDNA. […]

For series [3] the following is noted: cited from earlier work.
Where [4] appears, read: 24 hours of incubation, all tested concentrations (18-β 2.5-80 μM, ester (Ia) 0.625-80 μM).
The mark [5] stands for this setting: prolonged exposure 48-72 hours, all considered concentrations.

As for `CC1(C)[C@@H](O)CC[C@]2(C)[C@H]3C(=O)C=C4[C@@H]5C[C@@](C)(C(=O)OCC(O)C(O)C(O)C(O)COCC(O)COCC(O)COCC(O)CO)CC[C@]5(C)CC[C@@]4(C)[C@]3(C)CC[C@@H]12` (stereo partly drawn) [POLY-GLY-S, glycyrrhetinic ester of polyglycerol-3-sorbitol], in series [1], the “tolerability by NCTC2544 human keratinocytes” value is “well tolerated”. In addition, the “cytotoxic effect on NCTC2544 compared to control (MTT, % viability)” value in series [1] (setting [4]) is given as “none”; in series [1] (setting [5]), “same results”. Moreover, the figures for the “inhibition of the expression of the TNF-α gene” value in series [2] (2.5 μM), in series [2] (5 μM) and in series [2] (10 μM) were 43.99%, 40.71% and 54.36%, respectively. In addition, the “anti-inflammatory effect (inhibiting the expression of the TNF-α gene)” value in series [2] was “significantly effective”. Moreover, the “reduction of the expression of the TNF-α gene” value in series [2] (all the concentrations assayed, 48 hours of incubation (conclusions)) is listed as “at least 50%”.
As for `CC1(C)[C@@H](O)CC[C@]2(C)[C@H]3C(=O)C=C4[C@@H]5C[C@@](C)(C(=O)O)CC[C@]5(C)CC[C@@]4(C)[C@]3(C)CC[C@@H]12` [18-β, 18-Beta glycyrrhetinic acid, reference compound], the solubility in ethanol result in series [3] (ethanol) is recorded as “soluble”. Further, the solubility in oils result in series [3] (oils) is on record as “insoluble”. Also, the solubility in water entry in series [3] (water) is listed as “insoluble”. For the same compound, the “tolerability by NCTC2544 human keratinocytes” value in series [1] is reported as “well tolerated”. Moreover, the “cytotoxic effect on NCTC2544 compared to control (MTT, % viability)” value in series [1] (setting [4]) is “none”; in series [1] (setting [5]), “same results”. Moreover, the “anti-inflammatory effect (inhibiting the expression of the TNF-α gene)” value in series [2] was “no longer had anti-inflammatory effect”.

These data come from patent US9394335B2, “Esters of glycyrrhetinic acid, preparation and cosmetic applications thereof” (GIULIANI S.P.A., priority 2012, dated 2016).
